From US6447817B1, “Anti-inflammatory analgesic” (Nippon Hypox Laboratories Inc., priority 1998, dated 2002)
“Also recorded” adds a separate entry of the source.

System: serotonin swelling of rat
Assay: Inhibition of serotonin swelling of rat sole after application to the skin
Assay type: in vivo
Conditions: for Average swelling ratio (%) / Average inhibition ratio (%): rat right sole, measured 30 min after injection; for Average swelling ratio (%): 1.5 g of 2% xanthan gum solution with 3% test sample applied 2 h before serotonin injection, control 30; for Average inhibition ratio (%): 3% test sample applied 2 h before serotonin injection
Procedure: For clarifying the effect of the anti-inflammation analgesic preparation of the present invention, the effect of the anti-inflammation analgesic preparation on inhibition of serotonin swelling is shown below.
1.5 Grams of a 2% xanthan gum solution containing a test sample of having a concentration of 3% was applied to a portion ranging from a right femoral portion to a sole portion (bottom portion) of a rat. Two hours after the test sample was applied, a solution of 3 μg/ml of serotonin in 0.1 ml of a saline solution was hypodermically injected into the sole of the right foot. Thirty minutes after the injection of the inflammatory substance, the swelling of the sole of the right leg was measured to determine a swelling ratio. When serotonin as an inflammatory substance involving the generation of a pain is injected, a swelling involving a pain is caused.

With O=C(O)COc1nn(Cc2ccccc2)c2ccccc12 [Bendazac, reference compound] the “Average swelling ratio (%)” value was 30%, the “Average inhibition ratio (%)” value was 0% and the “Inhibition of serotonin swelling (in words)” value (rat, 3% test sample applied to skin) was “failed to inhibit the above inflammation reaction; also recorded: showed no effect on the swelling and was ineffective”.

With CCCCCCCCCCCCOC1=C(O)C(=O)O[C@@H]1[C@@H](O)CO [L-3-0-dodecylascorbic acid] the “Average swelling ratio (%)” value was 14% and the “Average inhibition ratio (%)” value was 54%.

CCCCCCCCCCCCC(=O)COC1=C(O)C(=O)O[C@@H]1[C@@H](O)CO [L-3-0-dodecylcarbonylmethylascorbic acid, L-3-0-dodecylcarbonyl-methylascorbic acid] was tested, and the “Average swelling ratio (%)” value was 13% and the “Average inhibition ratio (%)” value was 57%.

For CCOC1=C(O)C(=O)O[C@@H]1[C@@H](O)CO [L-3-0-ethylascorbic acid], the “Average swelling ratio (%)” value was 12% and the “Average inhibition ratio (%)” value was 76%.

With CCCCCCCCCCCCCCCCCCOC(=O)COC1=C(O)C(=O)O[C@@H]1[C@@H](O)CO [L-3-0-octadecyloxycarbonylmethylascorbic acid] the “Average swelling ratio (%)” value was 15% and the “Average inhibition ratio (%)” value was 50%.

O=C1O[C@H]([C@@H](O)CO)C([O-])=C1OP(=O)(O)O.O=C1O[C@H]([C@@H](O)CO)C([O-])=C1OP(=O)(O)O.[Mg+2] [L-ascorbic acid-2-phosphoric acid ester magnesium salt] was tested, and the “Average swelling ratio (%)” value was 28% and the “Average inhibition ratio (%)” value was 7%.
